Data from article PMC3706801 (Alzheimer's Research & Therapy, 2013).

Assays:
NT2/D1 cells = assay: Curcuminoid binding to NT2/D1 cells
Method: NT2/D1 cells were grown in 25 cm^2 flasks to a density of about 90% confluence (6 to 8 × 10^6 cells) with 6 ml of Dulbecco's Minimal Essential Medium (DMEM) containing 5% fetal calf serum (FCS). […] The remaining volume consisted of varying ratios of DMEM and mouse serum to generate dose curves with constant curcuminoid and variable serum concentrations. […] Cells were then washed three times in the flasks with 5 mL of 0.9% saline and then scraped into 1 ml of the same solution. The cell suspension was centrifuged at 3,000 × g for one minute and the supernatant removed. The cell pellet was resuspended in 1 ml of 0.6% saline and re-centrifuged. The final pellet was suspended in 0.4 ml of 0.6% saline and mixed with 0.8 ml of acetone. All samples were stored at -20°C for 2 to 16 h and processed for reversed phase chromatography as described above for tissue preparation.

[1] = parameters: method as in PMID 17340565; details: i.v. 10 mg/kg in DMA/PEG/dextrose, rats; read-out: initial plasma concentrations; cited from earlier work
[2] = parameters: method as in PMID 18417733; details: intramuscular 3 mg/kg, four hours after injection; cited from earlier work
[3] = cited from earlier work
[4] = HP-γ-CD-solubilized, dose curve ~50% BMAX, Figure 9B left
[5] = HP-γ-CD-solubilized, saturating (100% BMAX), 300 μM, no serum, Figure 9B middle
[6] = HP-γ-CD-solubilized, serum competition, 95% serum, Figure 9B right
[7] = mouse serum-solubilized, dose curve ~50% BMAX, Figure 9A left
[8] = mouse serum-solubilized, saturating (100% BMAX), 200 μM, 5% serum, Figure 9A middle
[9] = mouse serum-solubilized, serum competition, 100% serum, Figure 9A right

Compound	relative contribution to cell-bound curcuminoids (percentage of the total) (NT2/D1 cells; [4]) [%]	relative contribution to cell-bound curcuminoids (percentage of the total) (NT2/D1 cells; [5]) [%]	relative contribution to cell-bound curcuminoids (percentage of the total) (NT2/D1 cells; [6]) [%]	relative contribution to cell-bound curcuminoids (percentage of the total) (NT2/D1 cells; [7]) [%]	relative contribution to cell-bound curcuminoids (percentage of the total) (NT2/D1 cells; [8]) [%]	relative contribution to cell-bound curcuminoids (percentage of the total) (NT2/D1 cells; [9]) [%]	C0 [1] [µM]	brain levels [2]	plasma levels after oral administration [3] [µM]
bisdemethoxycurcumin [BDMC]	35	48	26	27	15	15			
curcumin	42	28	55	49	61	65	~27	approximately 3.2 nmol/g	≤ 1
COc1cc(/C=C/C(O)=C/C(=O)/C=C/c2ccc(O)cc2)ccc1O [DMC, demethoxycurcumin]	23	24	19	24	24	20			
